Test results from patent publication US20230082989A1, “DEVICES AND METHODS FOR TREATING CANCER AND CARDIAC WASTING” (Nazzano Devices Limited, priority 2020, published 2023).
Where two headings read alike, the source gives them in different places. Where no end group is shown, it is not given here.

Tests used:
[1] = system: advanced cancer patients; experiment: Echocardiogram (LVEF, LV mass) in advanced cancer patients receiving heart failure drugs, case series; format: in vivo, human
Description: (§1) In some cases, SGLT2 inhibitors, Dapagliflozin or Empagliflozin can be used for treatment of type 2 diabetes, heart failure, or a combination thereof. Disclosed herein are methods comprising administering these drugs to advanced cancer patients to improve a heart muscle in these patients. We here describe 5 advanced cancer patients, who were treated with either an SGLT2 inhibitor, an ACE inhibitor, a beta-blocker or an Angiotensin receptor blocker, all of which are shown to be effective heart failure therapies.

[2] = system: advanced cancer patients; experiment: 24 h ECG recording (mean heart rate, SDNN, NSVT) in advanced cancer patients receiving heart failure drugs, case series; format: in vivo, human
Description: as §1

[3] = system: advanced cancer patients; experiment: Hand grip strength, 4 meter walk and 6-minute walk test in advanced cancer patients receiving heart failure drugs, case series; format: in vivo, human; conditions: for Distance in 6-minute walk test / Hand grip strength: Case 6: Colorectal Cancer UICC stage 4, Candesartan 16 mg and Dapagliflozin 10 mg with co-medication
Description: as §1

[4] = system: advanced cancer patients; experiment: Self-rated health / EQ5D5L index in advanced cancer patients receiving heart failure drugs, case series; format: in vivo, human; conditions: for Self-rated health: 1=very good, 5=very poor
Description: as §1

[5] = system: patients with advanced cancer; conditions: cited from earlier work
[6] = system: advanced cancer patients; experiment: Interpretation of case reports: protection from heart muscle wasting, NSVT and early death; format: in vivo, human; conditions: Case 9: Lung Cancer UICC stage 4; Candesartan 32 mg and Metoprolol 95 mg with co-medication
[7] = Case 6: Colorectal Cancer UICC stage 4, Candesartan 16 mg and Dapagliflozin 10 mg with co-medication
[8] = Case 9: Lung Cancer UICC stage 4, Candesartan 32 mg and Metoprolol 95 mg with co-medication
[9] = Case 13: Lung cancer UICC stage 4B, Spironolactone 25 mg and Candesartan 32 mg with co-medication
[10] = Case 12: Multiple Myeloma stage 3, Spironolactone 25 mg, Candesartan 32 mg and Candesartan 8 mg listed, with co-medication
[11] = Case A: pancreatic cancer metastasized to liver, Gemcitabine, pre-study vs post-study
[12] = Case B: gastrointestinal cancer metastasized to liver, Capecitabine
[13] = Case C: advanced mesothelioma, FOLFIRI
[14] = Case D: head & neck cancer metastasized to lungs, Cetuximab, pre-study vs post-study

## CCOc1nc2cccc(C(=O)O)c2n1Cc1ccc(-c2ccccc2-c2nnn[nH]2)cc1 [Candesartan]
[1]; [7]
  LV mass (echocardiogram): 247 gram
  LVEF (echocardiogram): 68%
[1]; [8]
  LV mass (echocardiogram): 326 gram
  LVEF (echocardiogram): 67%
[1]; [9]
  LV mass (echocardiogram): 148 gram
  LVEF (echocardiogram): 66%
[2]; [7]
  Heart rate variability SDNN (24 h ECG): 160 ms
  Mean heart rate (24 h ECG): 70 beats per minute
[2]; [10]
  Heart rate variability SDNN (24 h ECG): 112 ms
  Mean heart rate (24 h ECG): 69 beats per minute
[2]; [9]
  Heart rate variability SDNN (24 h ECG): 101 ms
[3]
  Distance in 6-minute walk test: 504 meters
  Hand grip strength: 46 kg
[3]; [8]
  Distance walked in 6 minutes: 440 meters
  Hand grip muscle strength: 43 kg
[3]; [10]
  Distance walked in 6 minutes: 527 meters
  Hand grip muscle strength: 47 kg
  Time to walk 4 meters: 2.5 s
[3]; [9]
  Hand grip muscle strength: 40 kg
[4]; [7]
  Self-rated health: 4
[4]; [8]
  Self-rated health: 2
[4]; Case 12: Multiple Myeloma stage 3, Spironolactone 25 mg, Candesartan 32 mg and Candesartan 8 mg listed, with co-medication, 1 best possible, 0 worst possible
  Symptom status, EQ5D5L Index: 0.887

## Ghrelin (GSSFLSPEHQRVQQRKESKKPPAKLQPR; ends and bridges not checked; UniProt Q9UBU3 24-51, looked up) [a gut-derived 28-amino acid peptide hormone]
[5]; [11]
  Change in muscle mass: no change
  Increase in muscle strength: 2%
  Increase in steps/day: 40%
[5]; [12]
  Adverse event: hospitalized for atrial fibrillation, which was an AE deemed unrelated to ghrelin
  Patient comment about using ghrelin: Feel more active
[5]; [13]
  Adverse event: increase in tumor pain, an AE deemed unrelated to ghrelin
  Patient opinion about using ghrelin: This is the first therapy which improves my well-being
  Survival: 62 days
[5]; Case C: advanced mesothelioma, FOLFIRI, pre-study vs post-study
  Decrease in muscle mass: 3%
[5]; [14]
  Change in muscle mass: no change
  Increase in muscle strength: 6%
  Increase in steps/day: 63%

## CCOc1ccc(Cc2cc([C@@H]3O[C@H](CO)[C@@H](O)[C@H](O)[C@H]3O)ccc2Cl)cc1 [Dapagliflozin]
[1]; [7]
  LV mass (echocardiogram): 247 gram
  LVEF (echocardiogram): 68%
[2]; [7]
  Heart rate variability SDNN (24 h ECG): 160 ms
  Mean heart rate (24 h ECG): 70 beats per minute
[3]
  Distance in 6-minute walk test: 504 meters
  Hand grip strength: 46 kg
[4]; [7]
  Self-rated health: 4

## COCCc1ccc(OCC(O)CNC(C)C)cc1 (stereo not drawn) [Metoprolol]
[1]; [8]
  LV mass (echocardiogram): 326 gram
  LVEF (echocardiogram): 67%
[2]; [8]
  Non-sustained ventricular tachycardia (24 h ECG): no non-sustained ventricular tachycardia
[3]; [8]
  Distance walked in 6 minutes: 440 meters
  Hand grip muscle strength: 43 kg
[4]; [8]
  Self-rated health: 2
[6]
  Interpretation of the case: protected from heart muscle wasting, life-threatening non-sustained ventricular tachycardia and early death
